{"source": "ChEMBL document CHEMBL3400014", "about": "“Cytotoxic acyl amides from the soil fungus Gymnascella dankaliensis” (Bioorg Med Chem, 2015)", "note": "Active and inactive are the calls of the source. No cut-off for these calls is given here."}
{"system": "L5178Y", "assay": "Cytotoxicity against mouse L5178Y cells by MTT assay", "format": "functional, cell-based", "units": {"IC50": "nM"}}
{"smiles": "CCCCCC[C@@H](C)/C=C(C)/C=C/C(=O)N[C@H]1CC2(C=C(Cl)C(=O)C(Cl)=C2)OC1O", "note": "(some centres not stated)", "IC50": 640}
{"smiles": "CCCCCC[C@@H](C)/C=C(C)/C=C/C(=O)N[C@H]1C[C@]2(OC1O)[C@@H]1O[C@@H]1C(O)[C@@H]1O[C@@H]12", "note": "(some centres not stated)", "Activity": "inactive"}
{"smiles": "CC(/C=C/C(=O)NC(Cc1ccc(O)cc1)C(=O)O)=C\\[C@H](C)CC(=O)O", "note": "(mixture of isomers)", "Activity": "inactive"}
{"smiles": "CCCCCC[C@@H](C)/C=C(C)/C=C/C(=O)N[C@H]1C[C@]2(OC1O)[C@@H]1O[C@@H]1C(O)(CC(C)=O)[C@@H]1O[C@@H]12", "note": "(some centres not stated)", "Activity": "inactive"}
{"smiles": "CC(/C=C/C(=O)NC(Cc1ccc(O)cc1)C(=O)O)=C\\[C@H](C)CCCCCCO", "note": "(mixture of isomers)", "Activity": "inactive"}
{"smiles": "CCCCCC[C@@H](C)/C=C(C)/C=C/C(=O)N[C@H]1C[C@]2(OC1O)[C@@H]1O[C@@H]1C(=O)[C@@H]1O[C@@H]12", "note": "(some centres not stated)", "IC50": 580}
{"smiles": "CC(/C=C/C(=O)NC(Cc1ccc(O)cc1)C(=O)O)=C\\[C@H](C)CCCCCC(=O)O", "note": "(mixture of isomers)", "Activity": "inactive"}
{"smiles": "CCCCCC[C@@H](C)/C=C(C)/C=C/C(N)=O", "Activity": "inactive"}
{"smiles": "CCCCCC[C@@H](C)/C=C(C)/C=C/C(=O)N[C@H]1C[C@]2(O[C@H]1OC)[C@@H]1O[C@@H]1C(=O)[C@@H]1O[C@@H]12", "IC50": 440}
{"smiles": "CCCCCC[C@@H](C)/C=C(C)/C=C/C(=O)N[C@H]1C[C@]2(C=C(Cl)C(=O)[C@H](Cl)[C@H]2O)O[C@H]1OC", "IC50": 5800}
{"smiles": "CC(/C=C/C(=O)NC(CO)Cc1ccc(O)cc1)=C\\C(C)CC(=O)O", "note": "(mixture of isomers)", "Activity": "inactive"}
{"smiles": "CC(/C=C/C(N)=O)=C\\[C@H](C)CC(=O)O", "Activity": "inactive"}
